Results reported in ChEMBL document CHEMBL5325459, “Design, synthesis, and analgesia evaluation of novel Transient Receptor Potential Vanilloid 1 (TRPV1) agonists modified from Cannabidiol (CBD)” (Bioorg Med Chem, 2023).

Experiments:
[1] = target: T1, Transient receptor potential cation channel subfamily V member 1 (Homo sapiens, UniProt Q8NER1); test: Agonist activity at human TRPV1 overexpressed in HEK293 cells incubated for 1 hr by Fluo-4 AM dye based microscopic analysis; type: cell-based
[2] = target: T1, Transient receptor potential cation channel subfamily V member 1; test: Binding affinity to human TRPV1 assessed as dissociation constant by SPR analysis
[3] = Toxicity in Kunming mouse assessed as decrease in core body temperature at 50 mg/kg measured upto hrs; type: organism-based; conditions: in vivo
[4] = Toxicity in Kunming mouse assessed as decrease in core body temperature at 50 mg/kg measured after 15 mins; type: organism-based; conditions: in vivo, 0.25 h

T1 sequence (Q8NER1 whole entry): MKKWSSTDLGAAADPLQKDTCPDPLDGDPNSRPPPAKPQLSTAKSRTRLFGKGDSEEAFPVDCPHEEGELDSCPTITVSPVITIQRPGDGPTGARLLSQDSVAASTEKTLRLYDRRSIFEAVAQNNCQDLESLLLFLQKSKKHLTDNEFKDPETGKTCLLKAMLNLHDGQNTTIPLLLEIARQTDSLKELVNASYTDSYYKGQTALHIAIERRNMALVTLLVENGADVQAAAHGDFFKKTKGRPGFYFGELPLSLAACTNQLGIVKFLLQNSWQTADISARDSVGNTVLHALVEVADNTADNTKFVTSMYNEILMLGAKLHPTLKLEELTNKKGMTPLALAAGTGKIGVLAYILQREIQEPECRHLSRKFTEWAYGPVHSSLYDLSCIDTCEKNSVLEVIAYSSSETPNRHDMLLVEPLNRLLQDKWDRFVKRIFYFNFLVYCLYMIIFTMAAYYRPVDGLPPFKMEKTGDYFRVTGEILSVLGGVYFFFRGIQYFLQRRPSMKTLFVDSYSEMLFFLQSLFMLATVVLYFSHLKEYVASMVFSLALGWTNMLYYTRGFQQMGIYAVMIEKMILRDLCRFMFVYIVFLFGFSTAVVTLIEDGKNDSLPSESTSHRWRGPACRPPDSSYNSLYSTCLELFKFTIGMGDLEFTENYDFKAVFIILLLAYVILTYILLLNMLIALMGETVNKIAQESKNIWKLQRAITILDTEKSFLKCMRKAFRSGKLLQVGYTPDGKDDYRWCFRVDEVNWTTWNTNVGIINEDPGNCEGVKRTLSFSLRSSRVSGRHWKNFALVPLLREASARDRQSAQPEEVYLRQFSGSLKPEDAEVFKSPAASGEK

Compound | EC50 [1] [µM] | further results
C=C(C)[C@@H]1CCC(C)=C[C@H]1c1c(O)cc(CCCCC)cc1O [CANNABIDIOL] | 38.5 | Kd [2]: 110 µM; Activity [3]: Non-Toxic
CCCCCc1cc(O)c(NS(=O)(=O)c2cccc3cccnc23)c(O)c1 | 36.4 | –
COc1ccc(COC(=O)CCc2cc(O)c(NS(=O)(=O)c3cc(F)cc(F)c3)c(O)c2)cc1OC | – | Activity [4]: Toxic
CCCCCc1cc(O)c(NC(=O)c2ccc(=O)oc2)c(O)c1 | 71.2 | –
COc1cc(COC(=O)CCc2cc(O)c(NS(=O)(=O)c3cc(F)cc(F)c3)c(O)c2)ccc1O | – | Activity [3]: Non-Toxic
CCCCCc1cc(O)c(NS(=O)(=O)c2cccc(C(F)(F)F)c2)c(O)c1 | 10.4 | –
CCCCCc1cc(O)c(NC(=O)Nc2cccc3ncccc23)c(O)c1 | 40.5 | –
CCCCCc1cc(O)c(NS(=O)(=O)c2ccc(-c3ccccc3)cc2)c(O)c1 | 4.42 | –
CCCCCc1cc(O)c(NS(=O)(=O)c2cc(F)cc(F)c2)c(O)c1 | 39.8 | –
